Experimental data as given in US20220249415A1, “COMPOSITION OF AZELAIC ACID HAVING ADIPOSE TRIGLYCERIDE HYDROLYSIS EFFECT” (Korea University Research and Business Foundation, priority 2018, published 2022).

How the values were obtained:
ob/ob mice = assay: Anti-obesity effect, oral administration to genetically obesity-induced ob/ob mice; assay type: in vivo, mouse; details: 50 mg/kg oral
Protocol: After orally administering azelaic acid to an ob/ob mouse (Samtako, Seoul, Korea) corresponding to a genetically obesity-induced mouse at a concentration of 50 mg/kg, a degree of obesity thereof was compared with that of a control group to which azelaic acid was not administered. More specifically, an increase in body weight, a feed intake amount, body fat, blood indices, blood lipid indices, a weight of liver tissue, ALT and AST corresponding to hepatotoxicity indices, and energy metabolism were analyzed. Changes in body weight in azelaic acid administration group and a control group were observed once a week for an experiment period of 6 weeks. Body fats (total fat, subcutaneous fat, and abdominal fat) of mice in the azelaic acid administration group to which azelaic acid was orally administered for 6 weeks and a control group were measured through micro CT image analysis. The subcutaneous fat was quantified for the entire site of the mouse, and the abdominal fat was calculated by quantifying an amount of abdominal fat at the 15th to 20th lumbar spine sites of the mouse. In order to evaluate an effect on mouse lipid metabolism of azelaic acid in the administration group to which azelaic acid was orally administered for 6 weeks and the control group, concentrations of blood triglycerides, adiponectin, and cholesterol were measured. Weights of the liver tissue, ALT, and AST of the mice in the azelaic acid administration group to which azelaic acid was orally administered for 6 weeks and the control group were measured.

hAMSC cells = assay: Treatment of human adipocyte line hAMSC with azelaic acid; assay type: cell-based; details: azelaic acid 50 μM
Protocol: The anti-obesity effect was confirmed by treating a human adipocyte line, namely hAMSC cells (Cell Bio, CEFO, Seoul Korea), with azelaic acid (50 μM).

3T3-L1 adipocytes [1] = assay: Intracellular calcium assay (Fluo-4 Direct) in 3T3-L1 adipocytes; assay type: cell-based, mouse
Protocol: Therefore, changes in concentrations of cAMP, IP-one (metabolite of IP3), and calcium, which are second messengers by azelaic acid corresponding to the Olfr544 ligand, in 3T3-L1 adipocytes were measured. Since IP3 has low stability to thereby be easily decomposed to IP-one, an amount of intracellular IP-One (metabolite of IP3) was quantified instead of IP3. The concentration of intracellular calcium was measured using a Fluo-4 Direct™ Calcium Assay Kit (Invitrogen, California, U.S.) containing a fluorescent dye for labeling calcium ions. The cultured 3T3-L1 adipocytes were obtained and subjected to centrifugation, and then only pellets were diluted in a Fluo-4 Direct™ calcium assay buffer solution contained in the kit at a concentration of 2.5×10^6 cells/mL. After the resultant was seeded in a 96-well plate and cultured at 37° C. under 5% CO2 conditions for 60 minutes, 50 μL of a 2×Fluo-4 Direct™ calcium reagent loading solution was seeded in the 96-well plate and cultured at 37° C. under 5% CO2 conditions for 30 minutes. Then, fluorescence was measured at excitation and emission wavelengths of 494 nm and 516 nm.

3T3-L1 adipocytes [2] = assay: cAMP assay (ELISA kit) in 3T3-L1 adipocytes; assay type: cell-based, mouse; details: 50 μM azelaic acid, 18 hours
Protocol: Therefore, changes in concentrations of cAMP, IP-one (metabolite of IP3), and calcium, which are second messengers by azelaic acid corresponding to the Olfr544 ligand, in 3T3-L1 adipocytes were measured. Since IP3 has low stability to thereby be easily decomposed to IP-one, an amount of intracellular IP-One (metabolite of IP3) was quantified instead of IP3.
cAMP assay uses the principle to estimate a production amount of cAMP corresponding to a second messenger of a GPCR receptor activated by a ligand using a cAMP standard calibration curve. A 96-well plate included in a cAMP assay ELISA kit (Enzo Life science, New York, U.S.) was coated with a G×R IgG antibody, and after cAMP of a blue solution for obtaining the standard calibration curve was bound to alkaline phosphatase, the color of the blue solution was changed to yellow by a rabbit antibody. When alkaline phosphatase was activated by adding a pNpp substrate to a well bound to cAMP, a color change occurred, such that the concentration of cAMP may be measured at a wavelength of 405 nm using colorimetric analysis. In the present experiment, 1×10^4 3T3-L1 adipocytes were seeded in each well of the 96-well plate and differentiated, and then treated with 50 μM azelaic acid and 1 μM Foskolin corresponding to a positive control for 18 hours. Then, the concentration of cAMP was measured by the method described above.

OR2K2 = target: T1, OR2K2 (Homo sapiens, UniProt Q8NGT1); assay: siRNA knock-down of OR2K2 in hAMSC cells, lipolysis; assay type: cell-based; details: treated with azelaic acid
T1 construct: endogenous in cells; host or cells: HepG2
T1 sequence (Q8NGT1 1-316): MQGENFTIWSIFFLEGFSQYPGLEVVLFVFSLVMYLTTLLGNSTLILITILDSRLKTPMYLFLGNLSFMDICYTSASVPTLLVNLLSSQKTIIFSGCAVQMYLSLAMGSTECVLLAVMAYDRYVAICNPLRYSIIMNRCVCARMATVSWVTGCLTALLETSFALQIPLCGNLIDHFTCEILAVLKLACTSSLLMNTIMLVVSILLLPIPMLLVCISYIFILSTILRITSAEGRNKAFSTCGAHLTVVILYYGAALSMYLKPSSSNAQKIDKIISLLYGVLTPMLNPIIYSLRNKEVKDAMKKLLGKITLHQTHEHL
Source text: The gene expression of OR1E1, OR1K1, OR2K2, OR2S2, OR13C5, and OR51E2, corresponding to the top 6 receptors among 10 human olfactory receptors selected to be expressed in both adipose tissue and liver tissue while interacting with azelaic acid, was knocked down with siRNA in human-derived liver cell and adipocyte lines, namely HepG2 cells and hAMSC cells, respectively. Here, siRNAs that were used were OR1E2 siRNA (sc-93932), OR1K2 (sc-92810), OR2K2 (sc-92852), OR2S2 (sc-92505), OR13C5 (sc-92899), and OR51E2 (sc-76265), purchased from Santa Cruz Biotechnology Inc. (Dallas, Tx USA).
After knock-down treatment, the cell lines were treated with azelaic acid, and triglyceride hydrolysis and fatty acid oxidation-related gene expression in HepG2 cells as a human-derived liver cell line and hAMSC cells as a human-derived adipocyte line were measured.

- lipolytic effect, knock-down group compared to control group (OR2K2): statistically significantly decreased
SMILES: O=C(O)CCCCCCCC(=O)O [azelaic acid, nonanedioic acid]
- concentration of blood cholesterol (ob/ob mice; 6 weeks): significantly decreased
- concentration of blood triglyceride (ob/ob mice; 6 weeks): significantly decreased
- weight of the liver tissue (ob/ob mice; 6 weeks): decreased
- body weight (ob/ob mice; 6 weeks, on and after the first week, vs control group): significantly decreased
- ALT (hepatotoxicity index) (ob/ob mice; 6 weeks, vs control group): no large difference
- AST (hepatotoxicity index) (ob/ob mice; 6 weeks, vs control group): no large difference
- abdominal fat (micro CT) (ob/ob mice; 6 weeks, vs control group): significantly decreased
- subcutaneous fat (micro CT) (ob/ob mice; 6 weeks, vs control group): significantly decreased
- total fat (micro CT) (ob/ob mice; 6 weeks, vs control group): significantly decreased
- feed intake amount (ob/ob mice; final week, vs control group): no significant difference
- cAMP-PKA signaling (hAMSC cells): activated
- calcium concentration (hAMSC cells): no change
- inositol phosphate (IP) concentration (hAMSC cells): no change
- release of glycerol (hAMSC cells): promoted
- concentration of intracellular calcium (3T3-L1 adipocytes [1]): did not affect
- concentration of intracellular cAMP (3T3-L1 adipocytes [2]): significantly increased
